One block for each compound: values may come before it.
How the values were obtained:
[1] = tested on: PDE IV isozymes separated from U937 culture cells; test: PDE IV inhibition ([3H]-cAMP hydrolysis); assay type: biochemical; settings: cAMP 1 μM as substrate, 30° C., 20 minutes, Probit method
Experimental: PDE IV isozymes as used herein were separated from U937 culture cells by using an anion exchange chromatography. Type IV PDE isozyme was admixed with ethylene glycol (EG) to adjust the final EG concentration to 30%, then stored at −20° C. and diluted when used. The enzymatic activity for PDE IV was measured using cAMP as a substrate.
Each test compound was dissolved in DMSO to adjust the final concentration to 1% (2.5 μl/tube). Incubation buffer solution (pH7.5): • Tris-HCl (50 mM), magnesium chloride (6 mM), dithiothreitol (2.5 mM), 5-nucleotidase (4 μg/ml), bovine serum albumin (0.23 mg/ml), and cAMP (1 μM).
A mixture of the aforementioned test compound solution and the buffer solution was incubated at 30° C. for 20 minutes. The reaction was quenched by admixing with 1 ml of anion exchange resin slurry (AG1-X8, 200–400 meshes, chloride form; Bio-Rad) to absorb unreacted substrates. After the reaction stopped, the mixture was centrifuged at 800×g for 10 minutes, and the resulting supernatant was collected with vials in 250 μl aliquots. To each vial was added 5 ml of ACS-II (scintillator, Amersham). The radioactivity was measured with a liquid scintillator counter for [^3H]-adenosine and set as the PDE IV activity.

ICR mice = test: Toxicology study; assay type: in vivo; settings: oral 300 mg/10 ml/kg
Experimental: Each Compound (Example Nos. 7 and 8) was administered orally to ICR mice (7 animals per group) as a test compound. […] Each test compound was suspended in 0.5% CMC—Na solution and given orally to the animal at a dose of 300 mg/10 ml/kg.

[2] = tested on: actively sensitized guinea pigs; test: Inhibition of antigen-induced immediate asthmatic response (airway resistance, Konzett-Rossler method); assay type: in vivo, Male Hartley outbred guinea pigs; settings: orally, 60 minutes prior to antigen-challenge, ovalbumin-sensitized guinea pigs, Probit method; for ED50: Cavia porcellus
Experimental: Male Hartley outbred guinea pigs were sensitized by administering intraperitoneally physiological saline (0.5 ml) containing ovalbumin (1 mg, antigen) and 5×10^9 inactivated Bordetella pertussis dead cells (adjuvant). Eleven to thirteen days after the first sensitization, 0.05 ml of an ovalbumin solution (1 mg/ml) (ovalbumin is dissolved in physiological saline) was administered to the lateroabdominal region of each guinea pig intracutaneously. An establishment of sensitization was checked relying on cutaneous reaction. Only guinea pigs wherein significant reddening responses occurred 5 to 10 minutes later were employed in the next measurement test for airway resistance.
The guinea pigs (3 animals per group) actively sensitized in the above step (1) were employed to measure for their airway pressure according to Konzett-Rossler method (Arch. Exp. Path. Pharmakol., 195, 71 (1940)).
Thirteen days after the final sensitization, guinea pigs fasted overnight, and were on the next day anesthetized with a pentobarbital solution (30 mg/1.2 ml/kg, dissolved in physiological saline, intraperitoneal administration). After the guinea pigs were fixed in a supine position, their trachea was incised followed by insertion with one port of a 4-port cannula. Among the remaining 3 ports, 2 ports were connected to an artificial respirator (Model 683, Harvard). The animals were ventilated with 10 ml/kg of air per ventilation at a rate of 60 beats/min via the artificial respirator from the cannula. One port remainder was connected to a respiratory amplifier (AR-601G, Nihon Kohden, Japan) via an airflow resistance tube (TV-241T, Nihon Kohden, Japan) and a differential pressure transducer (TP-602T, Nihon Kohden, Japan) connected with a control box (RY-111S, Nihon Kohden, Japan). From a catheter inserted into a left carotid artery, blood pressures were monitored with a blood pressure measurement unit (AP641G, NEC Corp., Japan) via a blood pressure transducer (TP-300T, Nihon Kohden, Japan), and heart rates were recorded on a thermal recorder (WT-685G, Nihon Kohden, Japan), relying on blood pressure pulse waves after being led to a cardiograph unit (AT601G, Nihon Kohden, Japan).
After airway pressure became stable, an ovalbumin solution. (1 mg/ml, dissolved in physiological saline) was administered at a dose of 1 ml/kg via a tube with which the right jugular vein of guinea pigs was cannulated.
Each test compound was suspended in 0.5% CMC—Na solution and administered orally with an oral sound at a dose of 0.03 to 20 mg/2 ml/kg 60 minutes prior to the antigen-challenge. Control groups received only 0.5% CMC—Na solution in an equivalent amount. The pentobarbital-anesthetization and tracheal incision were conducted 30 minutes prior to the antigen-challenge.
Each percent reduction of increase in airway resistance (each test compound-administered group versus control group) was calculated according to the equation given below. ED50 was obtained by Probit method.

Male Marshall ferrets = test: Emetic action; assay type: in vivo; settings: oral, observed within 12 hours
Experimental: Male Marshall ferrets (each group consisting of 3 animals) as used herein fasted overnight. On the next day, a suspension of each test compound in 0.5% CMC—Na solution was administered orally to the animals. […] Next, each maximum tolerance dose against emesis was obtained. SB207499 was used for the reference compound in this assay.

TNF-α production = test: Inhibition of TNF-α production in galactosamine- and LPS-stimulation; assay type: in vivo, C3H/HeN mice; settings: Mus musculus; oral, 1 hour before i.v. galactosamine 800 mg/kg and LPS 5 μg/kg; serum TNF-α by ELISA 1 hour later
Experimental: A suspension of each test compound in 0.5% CMC—Na solution was administered orally to C3H/HeN mice at a dose of 0.10 to 10 mg/kg. One hour later, the animals received intravenously galactosamine at a dose of 800 mg/kg and LPS at a dose 5 μg/kg to raise the induction of TNF-α production. One hour later after the galactosamine- and LPS-administration, amounts of TNF-α in serum samples were measured by ELISA.

melting point: 173.5 to 174.5 °C
SMILES: O=c1c(CCCc2cccnc2)cc2cccnc2n1-c1ccc2nsnc2c1 [Example 2, 1-(2,1,3-Benzothiadiazol-5-yl)-3-[3-(pyridin-3-yl)propyl]-1,8-naphthyridin-2(1H)-one]

melting point: 169.5 to 170.5 °C
SMILES: O=c1c(CCCc2ccccn2)cc2cccnc2n1-c1ccc2nsnc2c1 [Example 3, 1-(2,1,3-Benzothiadiazol-5-yl)-3-[3-(pyridin-2-yl)propyl]-1,8-naphthyridin-2(1H)-one]

melting point: 175 to 175.5 °C
SMILES: O=c1c(CCCc2cncnc2)cc2cccnc2n1-c1cccc([N+](=O)[O-])c1 [Example 4, 1-(3-Nitrophenyl)-3-[3-(pyrimidin-5-yl)propyl]-1,8-naphthyridin-2(1H)-one]

melting point: 234 to 235 °C
SMILES: O=c1c(CCCc2cccnn2)cc2cccnc2n1-c1cccc([N+](=O)[O-])c1 [Example 5, 1-(3-Nitrophenyl)-3-[3-(pyridazin-3-yl)propyl]-1,8-naphthyridin-2(1H)-one]

melting point: 194 to 195 °C
SMILES: O=c1c(CCCc2cnccn2)cc2cccnc2n1-c1cccc([N+](=O)[O-])c1 [Example 6, 1-(3-Nitrophenyl)-3-[3-(pyrazin-2-yl)propyl]-1,8-naphthyridin-2(1H)-one]

melting point: 124 to 127 °C
SMILES: CN(C)c1cccc(-n2c(=O)c(CCCc3ccncc3)cc3cccnc32)c1 [Example 9, 1-(3-Dimethylaminophenyl)-3-[3-(pyridin-4-yl)propyl]-1,8-naphthyridin-2(1H)-one]

melting point: 200 to 202 °C
SMILES: CC(=O)Nc1cccc(-n2c(=O)c(CCCc3ccncc3)cc3cccnc32)c1 [Example 10, 1-(3-Acetylaminophenyl)-3-[3-(pyridin-4-yl)propyl]-1,8-naphthyridin-2(1H)-one]

melting point: 83 to 91 °C
SMILES: CC(CCc1cc2cccnc2n(-c2cccc(N)c2)c1=O)c1ccncc1 (centres unmarked) [Example 13, 1-(3-Aminophenyl)-3-[3-methyl-3-(pyridin-4-yl)propyl]-1,8-naphthyridin-2(1H)-one]

melting point: 148 to 154 °C
SMILES: CC(CCc1cc2cccnc2n(-c2cccc(N(C)C)c2)c1=O)c1ccncc1 (centres unmarked) [Example 15, 1-(3-Dimethylaminophenyl)-3-[3-methyl-3-(pyridin-4-yl)propyl]-1,8-naphthyridin-2(1H)-one]

melting point: 235 to 236 °C
SMILES: O=c1c(CCC(O)c2ccncc2)cc2cccnc2n1-c1cccc([N+](=O)[O-])c1 (centres unmarked) [Example 20, 1-(3-nitrophenyl)-3-[3-hydroxy-3-(pyridin-4-yl)propyl]-1,8-naphthyridin-2(1H)-one]

melting point: 69 to 71 °C
SMILES: CC(=O)OC(CCc1cc2cccnc2n(-c2cccc([N+](=O)[O-])c2)c1=O)c1ccncc1 (centres unmarked) [Example 22, 1-(3-Nitrophenyl)-3-[3-acetyloxy-3-(pyridin-4-yl)propyl]-1,8-naphthyridin-2(1H)-one]

melting point: 209 to 211 °C
SMILES: Nc1cccc(-n2c(=O)c(CCC(O)c3ccncc3)cc3cccnc32)c1 (centres unmarked) [Example 23, 1-(3-Aminophenyl)-3-[3-hydroxy-3-(pyridin-4-yl)propyl]-1,8-naphthyridin-2(1H)-one]

melting point: 191 to 192 °C
SMILES: O=c1c(CCCc2ccncc2)cc2cccnc2n1-c1cccc2nsnc12 [Example 24, 1-(2,1,3-Benzothiadiazol-4-yl)-3-[3-(pyridin-4-yl)propyl]-1,8-naphthyridin-2(1H)-one]

melting point: 136 to 137 °C
SMILES: O=c1c(CCCc2ccncc2)cc2cccnc2n1-c1ccc(Cl)c([N+](=O)[O-])c1 [Example 25, 1-(4-Chloro-3-nitrophenyl)-3-[3-(pyridin-4-yl)propyl]-1,8-naphthyridin-2(1H)-one]

melting point: 192 to 194 °C
SMILES: O=c1c(CCCc2ccncc2)cc2cccnc2n1-c1ccc2nonc2c1 [Example 27, 1-(2,1,3-Benzoxadiazol-5-yl)-3-[3-(pyridin-4-yl)propyl]-1,8-naphthyridin-2(1H)-one]

SMILES: Nc1cccc(-n2c(=O)c(CCCc3cc[n+]([O-])cc3)cc3cccnc32)c1 [Example No. 8, 1-(3-Aminophenyl)-3-[3-(1-oxypyridin-4-yl)propyl]-1,8-naphthyridin-2(1H)-one]
IC50 [1]: 0.067 µM | Body weight gain (ICR mice): No reduction of body weight gains was observed | Mortality (ICR mice): None of the animals were died | Other parameters (general health conditions) (ICR mice): no abnormality was observed | ED50 [2]: 1.2 mg/kg | Emetic actions at asthmatic response-inhibitory ED50 level (Male Marshall ferrets; dose = ED50 of Assay Example 2): no observation for emetic actions

melting point: 154 to 155 °C | IC50 [1]: 0.07 µM
SMILES: CC(CCc1cc2cccnc2n(-c2cccc([N+](=O)[O-])c2)c1=O)c1ccncc1 (centres unmarked) [Example No. 11, 1-(3-Nitrophenyl)-3-[3-methyl-3-(pyridin-4-yl)propyl]-1,8-naphthyridin-2(1H)-one]
ED50 [2]: 0.12 mg/kg

melting point: 182.5 to 196.5 °C | IC50 [1]: 0.13 µM
SMILES: CC(CCc1cc2cccnc2n(-c2cccc([N+](=O)[O-])c2)c1=O)c1cc[n+]([O-])cc1 (centres unmarked) [Example No. 12, 1-(3-nitrophenyl)-3-[3-methyl-3-(1-oxypyridin-4-yl)propyl]-1,8-naphthyridin-2(1H)-one]
ED50 [2]: 0.21 mg/kg

IC50 [1]: 0.45 µM
SMILES: O=C(CCc1cc2cccnc2n(-c2cccc([N+](=O)[O-])c2)c1=O)c1ccncc1 [Example No. 17, 1-(3-Nitrophenyl)-3-[3-oxy-3-(pyridin-4-yl)propyl]-1,8-naphthyridin-2(1H)-one]
ED50 [2]: 0.71 mg/kg

SMILES: Nc1cccc(-n2c(=O)c(CCC(=O)c3cc[n+]([O-])cc3)cc3cccnc32)c1 [Example No. 19, 1-(3-Aminophenyl)-3-[3-oxo-3-(1-oxypyridin-4-yl)propyl]-1,8-naphthyridin-2(1H)-one]
Inhibition of Asthmatic response ED50 [2]: 0.38 mg/kg

SMILES: COc1ccc(C2CNC(=O)C2)cc1OC1CCCC1 (centres unmarked) [Rolipram, reference compound]
ED50 [2]: 0.51 mg/kg

SMILES: COc1ccc([C@]2(C#N)CC[C@@H](C(=O)O)CC2)cc1OC1CCCC1 [SB207499, cis-4-cyano-4-[3-(cyclopentyloxy)-4-methoxyphenyl]cyclohexane-1-carboxylic acid, reference compound]
ED50 (TNF-α production): 0.9 mg/kg | IC50 [1]: 0.03 µM | ED50 [2]: 20 mg/kg | Emetic activity at a half of the ED50 dose (Male Marshall ferrets; a half of the ED50 dose of Assay Example 2): elicitation of emetic activity has been found

Source: US7115623B2, “PDE IV inhibitors” (Aska Pharmaceuticals Co., Ltd., priority 2001, dated 2006)
